Measured values: patent US20250051356A1, “RIFABUTIN ANALOGS FOR THE TREATMENT OF DISEASE” (priority 2021, published 2025)
Converted amounts (≈) assume the structure as drawn. Where two headings read alike, the source gives them in different places.

Columns and labels:
Assay type in all cases: cell-based
[1] = test system: S. aureus (UAMS-1625 strain); test: MIC by broth microdilution against S. aureus; details: Staphylococcus aureus, read-out: MIC S. aureus
[2] = test system: A. baumannii (HUMC1 strain); test: MIC by broth microdilution against A. baumannii in RPMI + 10% FCS; details: Acinetobacter baumannii; HUMC1 strain; RPMI + 10% FCS; read-out: MIC A. baumannii
[3] = test system: M. abscessus subsp. abscessus ATCC 19977; test: MIC against M. abscessus in Middlebrook 7H9 + ADC; details: Mycobacteroides abscessus
M. kansasii (ATCC 12478) = test: MIC against M. kansasii in CAMHB + ADC; details: Mycobacterium kansasii, ATCC12478; ATCC 12478; CAMHB + ADC (5%); read-out: MIC M. kansasii
M. xenopi (ATCC 19250) = test: MIC against M. xenopi in CAMHB + ADC; details: Mycobacterium xenopi, ATCC19250; ATCC 19250; CAMHB + ADC (5%); read-out: MIC M. xenopi
M. avium (ATCC 25291) = test: MIC against M. avium in CAMHB + ADC; details: Mycobacterium avium, ATCC25291; ATCC 25291; CAMHB + ADC (5%); read-out: MIC M. avium
[4] = test system: M. abscessus subsp. abscessus ATCC 19977; test: MIC against M. abscessus isolate in CAMHB; details: Mycobacteroides abscessus, ATCC19977
[5] = test system: M. abscessus subsp. abscessus CCUG 71636; test: MIC against M. abscessus isolate in CAMHB
[6] = test system: M. abscessus subsp. abscessus CCUG 71382; test: MIC against M. abscessus isolate in CAMHB; details: Mycobacteroides abscessus, CCUG71382
[7] = test system: M. abscessus subsp. bolletii CCUG 50184; test: MIC against M. abscessus isolate in CAMHB; details: Mycobacteroides abscessus, CCUG50184
[8] = test system: M. abscessus subsp. massiliense CCUG 48898; test: MIC against M. abscessus isolate in CAMHB; details: Mycobacteroides abscessus, CCUG48898
[9] = ATCC19977, ATCC 19977, 7H9 + ADC, read-out: MIC M. abscessus
[10] = Mycobacteroides abscessus, CCUG71636; read-out: M. abscessus MIC in CAMHB, abscessus CCUG 71636

Row | SMILES | MIC [1] | MIC [2] | MIC [3, 9] | MIC (M. kansasii (ATCC 12478)) | MIC (M. xenopi (ATCC 19250)) | MIC (M. avium (ATCC 25291)) | MIC [4] | MIC [5, 10] | MIC [6] | MIC [7] | MIC [8] | MIC ([5]; Mycobacteroides abscessus, CCUG71636, read-out: M. abscessus MIC in CAMHB, abscessus CCUG 71636) | MIC ([3]; ATCC19977, read-out: MIC M. abscessus)
1 | CO[C@H]1/C=C/OC2(C)Oc3c(C)c(O)c4c(c3C2=O)C2=NC3(CCN(CC(C)C)CC3)NC2=C(NC(=O)/C(C)=C\C=C\[C@H](C)[C@H](O)[C@@H](C)[C@@H](O)[C@@H](C)[C@H](OC(=O)CCCC(=O)N2CCC(N(C)c3ccccc3)CC2)[C@@H]1C)C4=O (stereo partly drawn) [Compound 85] | 0.5 µg/mL (≈ 0.458 µM) | 0.03 µg/mL | 0.125 µg/mL | 0.008 µg/mL | 0.03 µg/mL | 0.25 µg/mL | 1 µg/mL (≈ 0.916 µM) | 0.5 µg/mL (≈ 0.458 µM) | 1 µg/mL (≈ 0.916 µM) | 1 µg/mL (≈ 0.916 µM) | 1 µg/mL (≈ 0.916 µM) |  | 
2 | CO[C@H]1/C=C/O[C@@]2(C)Oc3c(C)c(O)c4c(c3C2=O)C2=NC3(CCN(CC(C)C)CC3)NC2=C(NC(=O)/C(C)=C\C=C\[C@H](C)[C@H](O)[C@@H](C)[C@@H](O)[C@@H](C)[C@H](OC(=O)CC(=O)NC2CCN(Cc3ccccc3)CC2)[C@@H]1C)C4=O [Compound 90] | 0.125 µg/mL (≈ 0.118 µM) | 0.016 µg/mL | 0.25 µg/mL | 0.008 µg/mL | 0.25 µg/mL | 0.125 µg/mL | 1 µg/mL (≈ 0.94 µM) |  | 1 µg/mL (≈ 0.94 µM) | 0.5 µg/mL (≈ 0.47 µM) | 1 µg/mL (≈ 0.94 µM) | 0.125 µg/mL (≈ 0.118 µM) | 
3 | CO[C@H]1/C=C/O[C@@]2(C)Oc3c(C)c(O)c4c(c3C2=O)C2=NC3(CCN(CC(C)C)CC3)NC2=C(NC(=O)/C(C)=C\C=C\[C@H](C)[C@H](O)[C@@H](C)[C@@H](O)[C@@H](C)[C@H](OC(=O)CC(=O)N2CCN(CC3CCCCC3)CC2)[C@@H]1C)C4=O [Compound 98] | 0.5 µg/mL (≈ 0.474 µM) | 0.03 µg/mL | 0.125 µg/mL | 0.002 µg/mL | 0.016 µg/mL | 0.03 µg/mL | 0.25 µg/mL (≈ 0.237 µM) | 0.125 µg/mL (≈ 0.118 µM) | 0.5 µg/mL (≈ 0.474 µM) | 0.25 µg/mL (≈ 0.237 µM) | 0.5 µg/mL (≈ 0.474 µM) |  | 
4 | CO[C@H]1/C=C/O[C@@]2(C)Oc3c(C)c(O)c4c(c3C2=O)C2=NC3(CCN(CC(C)C)CC3)NC2=C(NC(=O)/C(C)=C\C=C\[C@H](C)[C@H](O)[C@@H](C)[C@@H](O)[C@@H](C)[C@H](OC(=O)CC(=O)N2CCN(c3ccncc3)CC2)[C@@H]1C)C4=O [Compound 116] | 0.06 µg/mL (≈ 0.0579 µM) | ≤ 0.002 µg/mL | 0.25 µg/mL | 0.06 µg/mL | 1 µg/mL | 2 µg/mL |  |  |  |  |  |  | 
5 | CO[C@H]1/C=C/O[C@@]2(C)Oc3c(C)c(O)c4c(c3C2=O)C2=NC3(CCN(CC(C)C)CC3)NC2=C(NC(=O)/C(C)=C\C=C\[C@H](C)[C@H](O)[C@@H](C)[C@@H](O)[C@@H](C)[C@H](OC(=O)CC(=O)N2CCN(c3ncccn3)CC2)[C@@H]1C)C4=O [Compound 117] | 0.03 µg/mL (≈ 0.0289 µM) | ≤ 0.002 µg/mL | 0.125 µg/mL | 0.004 µg/mL | 0.125 µg/mL | 0.25 µg/mL |  |  |  |  |  |  | 
6 | CO[C@H]1/C=C/O[C@@]2(C)Oc3c(C)c(O)c4c(c3C2=O)C2=NC3(CCN(CC(C)C)CC3)NC2=C(NC(=O)/C(C)=C\C=C\[C@H](C)[C@H](O)[C@@H](C)[C@@H](O)[C@@H](C)[C@H](OC(=O)CC(=O)N2CCN(Cc3ccccn3)CC2)[C@@H]1C)C4=O [Compound 118] | 0.06 µg/mL (≈ 0.0571 µM) | ≤ 0.002 µg/mL | 0.25 µg/mL | 0.03 µg/mL | 0.25 µg/mL | 2 µg/mL |  |  |  |  |  |  | 
7 | CO[C@H]1/C=C/O[C@@]2(C)Oc3c(C)c(O)c4c(c3C2=O)C2=NC3(CCN(CC(C)C)CC3)NC2=C(NC(=O)/C(C)=C\C=C\[C@H](C)[C@H](O)[C@@H](C)[C@@H](O)[C@@H](C)[C@H](OC(=O)CC(=O)N2CCN(Cc3ccncc3)CC2)[C@@H]1C)C4=O [Compound 119] | 0.016 µg/mL (≈ 0.0152 µM) | ≤ 0.002 µg/mL | 0.25 µg/mL | 0.008 µg/mL | 0.25 µg/mL | 1 µg/mL |  |  |  |  |  |  | 
8 | CO[C@H]1/C=C/O[C@@]2(C)Oc3c(C)c(O)c4c(c3C2=O)C2=NC3(CCN(CC(C)C)CC3)NC2=C(NC(=O)/C(C)=C\C=C\[C@H](C)[C@H](O)[C@@H](C)[C@@H](O)[C@@H](C)[C@H](OC(=O)CC(=O)N2CCCN(C)CC2)[C@@H]1C)C4=O [Compound 120] | 0.06 µg/mL (≈ 0.0608 µM) | 0.06 µg/mL | 0.25 µg/mL | 0.25 µg/mL | 1 µg/mL | 2 µg/mL |  |  |  |  |  |  | 
9 | CO[C@H]1/C=C/O[C@@]2(C)Oc3c(C)c(O)c4c(c3C2=O)C2=NC3(CCN(CC(C)C)CC3)NC2=C(NC(=O)/C(C)=C\C=C\[C@H](C)[C@H](O)[C@@H](C)[C@@H](O)[C@@H](C)[C@H](OC(=O)CC(=O)N2CCCN(c3ccccn3)CC2)[C@@H]1C)C4=O [Compound 122] | 0.06 µg/mL (≈ 0.0571 µM) | ≤ 0.002 µg/mL | 0.125 µg/mL | 0.002 µg/mL | 0.03 µg/mL | 0.125 µg/mL |  |  |  |  |  |  | 
10 | CO[C@H]1/C=C/O[C@@]2(C)Oc3c(C)c(O)c4c(c3C2=O)C2=NC3(CCN(CC(C)C)CC3)NC2=C(NC(=O)/C(C)=C\C=C\[C@H](C)[C@H](O)[C@@H](C)[C@@H](O)[C@@H](C)[C@H](OC(=O)CC(=O)N2CCCN(c3cccc(C(F)(F)F)n3)CC2)[C@@H]1C)C4=O [Compound 123] | 0.5 µg/mL (≈ 0.447 µM) | 0.25 µg/mL | 0.25 µg/mL | 0.008 µg/mL | 0.125 µg/mL | 0.06 µg/mL |  |  |  |  |  |  | 
11 | CO[C@H]1/C=C/O[C@@]2(C)Oc3c(C)c(O)c4c(c3C2=O)C2=NC3(CCN(CC(C)C)CC3)NC2=C(NC(=O)/C(C)=C\C=C\[C@H](C)[C@H](O)[C@@H](C)[C@@H](O)[C@@H](C)[C@H](OC(=O)CC(=O)N2CCCN(c3ncccn3)CC2)[C@@H]1C)C4=O [Compound 124] | 0.03 µg/mL (≈ 0.0285 µM) | ≤ 0.002 µg/mL | 0.125 µg/mL | 0.008 µg/mL | 0.125 µg/mL | 0.125 µg/mL |  |  |  |  |  |  | 
12 | CO[C@H]1/C=C/O[C@@]2(C)Oc3c(C)c(O)c4c(c3C2=O)C2=NC3(CCN(CC(C)C)CC3)NC2=C(NC(=O)/C(C)=C\C=C\[C@H](C)[C@H](O)[C@@H](C)[C@@H](O)[C@@H](C)[C@H](OC(=O)CC(=O)N2CCCN(c3nccc(C(F)(F)F)n3)CC2)[C@@H]1C)C4=O [Compound 125] | 0.5 µg/mL (≈ 0.447 µM) | 0.25 µg/mL | 0.125 µg/mL | 0.008 µg/mL | 0.06 µg/mL | 0.03 µg/mL |  |  |  |  |  |  | 
13 | CO[C@H]1/C=C/O[C@@]2(C)Oc3c(C)c(O)c4c(c3C2=O)C2=NC3(CCN(CC(C)C)CC3)NC2=C(NC(=O)/C(C)=C\C=C\[C@H](C)[C@H](O)[C@@H](C)[C@@H](O)[C@@H](C)[C@H](OC(=O)CC(=O)N2CCCN(Cc3ccccc3)CC2)[C@@H]1C)C4=O [Compound 126] | 0.125 µg/mL (≈ 0.118 µM) | 0.004 µg/mL |  | 0.004 µg/mL | 0.03 µg/mL | 0.03 µg/mL |  |  |  |  |  |  | 0.125 µg/mL
14 | CO[C@H]1/C=C/O[C@@]2(C)Oc3c(C)c(O)c4c(c3C2=O)C2=NC3(CCN(CC(C)C)CC3)NC2=C(NC(=O)/C(C)=C\C=C\[C@H](C)[C@H](O)[C@@H](C)[C@@H](O)[C@@H](C)[C@H](OC(=O)CC(=O)N2CCCN(Cc3ccc(F)cc3)CC2)[C@@H]1C)C4=O [Compound 127] | 0.25 µg/mL (≈ 0.231 µM) | 0.06 µg/mL | 0.125 µg/mL | 0.008 µg/mL | 0.03 µg/mL | 0.125 µg/mL |  |  |  |  |  |  | 
15 | CO[C@H]1/C=C/O[C@@]2(C)Oc3c(C)c(O)c4c(c3C2=O)C2=NC3(CCN(CC(C)C)CC3)NC2=C(NC(=O)/C(C)=C\C=C\[C@H](C)[C@H](O)[C@@H](C)[C@@H](O)[C@@H](C)[C@H](OC(=O)CC(=O)N2CCCN(Cc3ccncc3)CC2)[C@@H]1C)C4=O [Compound 128] | 0.06 µg/mL (≈ 0.0564 µM) | ≤ 0.002 µg/mL | 0.25 µg/mL | 0.03 µg/mL | 0.25 µg/mL | 0.5 µg/mL |  |  |  |  |  |  | 
